# In US9255100B2 (BAYER INTELLECTUAL PROPERTY GMBH, priority 2010, dated 2016):
# Target: T1, N-terminally GST-tagged human full length recombinant Mps-1 kinase (Homo sapiens, UniProt P33981)
# T1 construct: N-terminally GST-tagged human full length recombinant Mps-1 kinase; purchased Invitrogen, Karslruhe, Germany PV4071
# T1 sequence (P33981 1-857): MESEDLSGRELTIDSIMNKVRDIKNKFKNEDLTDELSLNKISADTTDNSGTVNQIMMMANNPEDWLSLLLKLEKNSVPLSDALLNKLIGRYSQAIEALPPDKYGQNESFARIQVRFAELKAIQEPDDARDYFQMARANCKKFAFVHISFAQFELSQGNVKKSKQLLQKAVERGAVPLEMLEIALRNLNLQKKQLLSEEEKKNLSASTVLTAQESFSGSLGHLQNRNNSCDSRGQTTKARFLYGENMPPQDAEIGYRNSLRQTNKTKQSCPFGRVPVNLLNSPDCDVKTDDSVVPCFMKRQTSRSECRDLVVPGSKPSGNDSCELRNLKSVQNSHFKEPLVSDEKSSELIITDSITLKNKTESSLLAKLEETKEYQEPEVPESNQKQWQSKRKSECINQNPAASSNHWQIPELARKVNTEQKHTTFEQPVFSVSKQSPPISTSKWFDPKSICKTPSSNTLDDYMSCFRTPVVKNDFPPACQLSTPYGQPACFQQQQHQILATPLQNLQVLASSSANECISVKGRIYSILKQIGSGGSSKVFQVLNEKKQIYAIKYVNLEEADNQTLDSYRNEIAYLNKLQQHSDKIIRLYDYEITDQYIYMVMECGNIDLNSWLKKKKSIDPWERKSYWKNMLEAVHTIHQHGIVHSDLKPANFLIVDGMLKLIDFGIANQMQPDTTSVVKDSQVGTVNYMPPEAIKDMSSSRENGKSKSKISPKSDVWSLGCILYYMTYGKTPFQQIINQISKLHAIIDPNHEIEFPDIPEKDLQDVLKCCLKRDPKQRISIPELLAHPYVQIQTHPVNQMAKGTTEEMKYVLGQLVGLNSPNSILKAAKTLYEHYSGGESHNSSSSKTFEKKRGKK
# Test: Mps-1 kinase assay (TR-FRET)
# Format: biochemical
# Conditions: Mps1 IC50 [nM], 10 μM ATP, 1 μM peptide substrate, 60 min at 22° C.
# Procedure, shortened: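 GST-tagged full-length recombinant Mps-1 at about 1 nM final, adjusted per lot for linear range, phosphorylated a biotinylated peptide. Product bound Eu-anti-phospho(Ser/Thr) antibody over 1 h at 22° C and was read by TR-FRET to streptavidin-XLent. Compounds scored for kinase inhibition.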
row,IC50 [nM],SMILES
1,11.9,"COc1cc(C(=O)NC2CC2)ccc1-c1cnc2c(NCC(C)(C)O)cc(-c3ccc(F)cc3)nn12 [Example 49, N-cyclopropyl-4-{6-(4-fluorophenyl)-8-[(2-hydroxy-2-methylpropyl)amino]imidazo[1,2-b]pyridazin-3-yl}-3-methoxybenzamide]"
2,0.2,"COc1ccc(Oc2cc(NCCC(F)(F)F)c3ncc(-c4ccc(C(=O)NC5CC5)c(C)c4)n3n2)cc1 [Example 471, N-cyclopropyl-4-{6-(4-methoxyphenoxy)-8-[(3,3,3-trifluoropropyl)amino]imidazo[1,2-b]pyridazin-3-yl}-2-methylbenzamide]"
3,< 1,"CCNC(=O)c1ccc(-c2cnc3c(NCC4CCOCC4)cc(Oc4ccc(OC)c(F)c4)nn23)cc1C [Example 600, N-ethyl-4-{6-(3-fluoro-4-methoxyphenoxy)-8-[(tetrahydro-2H-pyran-4-ylmethyl)a-mino]imidazo[1,2-b]pyridazin-3-yl}-2-methylbenzamide]"
4,6.2,"Cc1cc(-c2cnc3c(NCC(C)(C)O)cc(-c4cc(C(F)(F)F)nn4C)nn23)ccc1C(=O)NC1CC1 [Example 235, N-cyclopropyl-4-{8-[(2-hydroxy-2-methylpropyl)amino]-6-[1-methyl-3-(trifluoromethyl)-1H-pyrazol-5-yl]imidazo[1,2-b]pyridazin-3-yl}-2-methylbenzamide]"
5,0.5,"Cc1cc(-c2cnc3c(NCCC(F)(F)F)cc(Oc4cccc(C(C)C)c4O)nn23)ccc1C(=O)NC1CC1 [Example 441, N-cyclopropyl-4-{6-[2-hydroxy-3-(propan-2-yl)phenoxy]-8-[(3,3,3-trifluoropropyl)amino]imidazo[1,2-b]pyridazin-3-yl}-2-methylbenzamide]"
6,20.6,"c1cc(-c2cc(NC[C@@H]3CCCO3)c3ncc(-c4ccc(-c5cnc(C6CC6)[nH]5)cc4)n3n2)ccn1 [Example 4, 3-[4-(2-Cyclopropyl-1H-imidazol-5-yl)phenyl]-6-(pyridin-4-yl)-N-[(2S)-tetrahydrofuran-2-ylmethyl]imidazo[1,2-b]pyridazin-8-amine]"
7,0.3,"Cc1cc(-c2cnc3c(NCCC(F)(F)F)cc(Sc4ccc(F)cc4)nn23)ccc1C(=O)NC1CC1 [Example 250, N-cyclopropyl-4-{6-[(4-fluorophenyl)sulfanyl]-8-[(3,3,3-trifluoropropyl)amino]imidazo[1,2-b]pyridazin-3-yl}-2-methylbenzamide]"
8,1.5,"Cc1cc(-c2cnc3c(NCC(C)C)cc(-c4ccnn4C)nn23)ccc1C(=O)NC1CC1 [Example 202, N-cyclopropyl-2-methyl-4-{8-[(2-methylpropyl)amino]-6-(1-methyl-1H-pyrazol-5-yl)imidazo[1,2-b]pyridazin-3-yl}benzamide]"
9,0.2,"Cc1cc(-c2cnc3c(NCC4CCN(C)CC4)cc(Oc4cccc(F)c4)nn23)ccc1C(=O)NC1CC1 [Example 311, N-cyclopropyl-4-[6-(3-fluorophenoxy)-8-{[(1-methylpiperidin-4-yl)methyl]amino}imidazo[1,2-b]pyridazin-3-yl]-2-methyl-benzamide]"
10,0.4,"Cc1cc(-c2cnc3c(NCC4CCSCC4)cc(Oc4cccc(F)c4F)nn23)ccc1C(=O)NC1CC1 [Example 293, N-cyclopropyl-4-{6-(2,3-difluorophenoxy)-8-[(tetrahydro-2H-thiopyran-4-ylmethyl)amino]imidazo[1,2-b]pyridazin-3-yl}-2-methylbenzamide]"
11,4.1,"FC(F)(F)CCNc1cc(-c2ccncc2)nn2c(-c3ccc(-c4cnc(C5CC5)[nH]4)cc3)cnc12 [Example 26, 3-[4-(2-Cyclopropyl-1H-imidazol-5-yl)phenyl]-6-(pyridin-4-yl)-N-(3,3,3-trifluoropropyl)imidazo[1,2-b]pyridazin-8-amine]"
12,5.1,"CC(C)CNc1cc(-c2ccnc3ccccc23)nn2c(-c3ccc(C(=O)NC4CC4)cc3)cnc12 [Example 112, N-cyclopropyl-4-{8-[(2-methylpropyl)amino]-6-(quinolin-4-yl)imidazol [1,2-b]pyridazin-3-yl} benzamide]"
13,6.4,"CCOc1ccc(-c2cc(NCC(C)(C)O)c3ncc(-c4ccc(C(=O)NC5CC5)c(C)c4)n3n2)cn1 [Example 158, N-cyclopropyl-4-{6-(6-ethoxypyridin-3-yl)-8-[(2-hydroxy-2-methylpropyl)amino]imidazo[1,2-b]pyridazin-3-yl}-2-methylbenzamide]"
14,0.1,"CNc1cc(Oc2ccc(OC)c(F)c2)nn2c(-c3ccc(C(=O)NC4CC4)c(C)c3)cnc12 [Example 535, N-cyclopropyl-4-[6-(3-fluoro-4-methoxy-phenoxy)-8-(methyl-amino)imidazo[1,2-b]pyridazin-3-yl]-2-methylbenzamide]"
15,< 1,"Cc1cc(-c2cnc3c(NCC4CN(C)CCO4)cc(Sc4ccccc4)nn23)ccc1C(=O)NC1CC1 (racemic) [Example 56, (RS)—N-cyclopropyl-2-methyl-4-[8-{[(4-methylmorpholin-2-yl)methyl]amino}-6-(phenylsulfanyl)imidazo[1,2-b]pyridazin-3-yl]benzamide]"
16,0.2,"Cc1cc(-c2cnc3c(NCC4CC[S+]([O-])CC4)cc(Oc4ccc(Cl)cc4)nn23)ccc1C(=O)NC1CC1 (mixture of isomers) [Example 294B, 4-[6-(4-chlorophenoxy)-8-({[(cis/trans)-1-oxidotetrahydro-2H-thiopyran-4-yl]methyl}amino)imidazo[1,2-b]pyridazin-3-yl]-N-cyclopropyl-2-methylbenzamide]"
17,0.4,"COc1cccc(Nc2cc(NCC(C)(C)O)c3ncc(-c4ccc(C(=O)NC5CC5)c(C)c4)n3n2)c1C [Example 398, N-cyclopropyl-4-{8-[(2-hydroxy-2-methylpropyl)amino]-6-[(3-methoxy-2-methylphenyl)amino]imidazo[1,2-b]pyridazin-3-yl}-2-methylbenzamide]"
18,5.4,"COc1cc(F)ccc1Nc1cc(NCCCC(F)(F)F)c2ncc(-c3ccc(C(=O)NC4CC4)c(C)c3)n2n1 [Example 457, N-cyclopropyl-4-{6-[(4-fluoro-2-methoxyphenyl)amino]-8-[(4,4,4-trifluorobutyl)amino]imidazo[1,2-b]pyridazin-3-yl}-2-methylbenzamide]"
19,0.1,"Cc1cc(-c2cnc3c(NCCCN4CCOCC4)cc(Oc4cccc(F)c4)nn23)ccc1C(=O)NC1CC1 [Example 506, N-cyclopropyl-4-[6-(3-fluoro-phenoxy)-8-{[3-(morpholin-4-yl)propyl]amino}imidazo[1,2-b]pyridazin-3-yl]-2-methyl-benzamide]"
20,7.1,"COc1cc(C(=O)NC2CC2)ccc1-c1cnc2c(NCCC(F)(F)F)cc(-c3ccnn3C)nn12 [Example 53, N-cyclopropyl-3-methoxy-4-{6-(1-methyl-1H-pyrazol-5-yl)-8-[(3,3,3-trifluoropropyl)amino]imidazo[1,2-b]pyridazin-3-yl}benzamide]"
21,21.5,"CSc1cc(NCC(C)(C)O)c2ncc(-c3ccc(C(=O)NC4CC4)c(C)c3)n2n1 [Example 15, N-cyclopropyl-4-{8-[(2-hydroxy-2-methylpropyl)amino]-6-(methylsulfanyl)imidazo[1,2-b]pyridazin-3-yl}-2-methylbenzamide]"
22,0.6,"Cc1cc(-c2cnc3c(NCC(C)(C)O)cc(Nc4ccc(F)cc4)nn23)ccc1C(=O)NC1CC1 [Example 305, N-cyclopropyl-4-{6-[(4-fluorophenyl)amino]-8-[(2-hydroxy-2-methylpropyl)amino]imidazo[1,2-b]pyridazin-3-yl}-2-methylbenzamide]"
23,1,"CNC(=O)c1ccc(-c2cnc3c(NCCOC)cc(Oc4ccc(OC)c(F)c4)nn23)cc1C [Example 586, 4-{6-(3-fluoro-4-methoxyphenoxy)-8-[(2-methoxyethyl)a-mino]imidazo[1,2-b]pyridazin-3-yl]-N,2-dimethylbenzamide]"
24,0.5,"Cc1cc(-c2cnc3c(NCC(C)(C)O)cc(Sc4cccc(C(C)C)c4)nn23)ccc1C(=O)NC1CC1 [Example 273, N-cyclopropyl-4-{8-[(2-hydroxy-2-methylpropyl)amino]-6-[(3-isopropylphenyl)sulfanyl]imidazo[1,2-b]pyridazin-3-yl}-2-methylbenzamide]"
25,≥ 20000,"NC(=O)c1ccc(-c2cnc3c(NCc4cccs4)cc(Cl)nn23)cc1 [Example 191, 4-{6-Chloro-8-[(thiophen-2-yl-methyl)amino]imidazol[1,2-b]pyridazin-3-yl}benzamide]"
26,0.1,"Cc1cc(-c2cnc3c(NCCCN)cc(Oc4cccc(F)c4)nn23)ccc1C(=O)NC1CC1 [Example 546, 4-{8-[(3-aminopropyl)amino]-6-(3-fluorophenoxy)imidazo[1,2-b]pyridazin-3-yl}-N-cyclopropyl-2-methylbenzamide]"
